For assay [1], the target named is T1, Chromobox protein homolog 7 (Homo sapiens, UniProt O95931).
T1 sequence (O95931 whole entry): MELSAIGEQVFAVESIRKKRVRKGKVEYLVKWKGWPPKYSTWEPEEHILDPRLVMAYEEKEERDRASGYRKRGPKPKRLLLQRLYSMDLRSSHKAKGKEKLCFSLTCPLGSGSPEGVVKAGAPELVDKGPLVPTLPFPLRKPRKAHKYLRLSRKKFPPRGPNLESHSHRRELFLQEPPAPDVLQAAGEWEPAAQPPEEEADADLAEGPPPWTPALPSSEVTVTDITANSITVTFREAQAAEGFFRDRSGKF
Put plainly: (§1) Displacement of FITC-labeled H3K27me3 from CBX7 (unknown origin) after 15 mins by fluorescence polarization assay.

Assay [2] deals with T2, E3 SUMO-protein ligase CBX4 (Homo sapiens, UniProt O00257).
T2 sequence (O00257 whole entry): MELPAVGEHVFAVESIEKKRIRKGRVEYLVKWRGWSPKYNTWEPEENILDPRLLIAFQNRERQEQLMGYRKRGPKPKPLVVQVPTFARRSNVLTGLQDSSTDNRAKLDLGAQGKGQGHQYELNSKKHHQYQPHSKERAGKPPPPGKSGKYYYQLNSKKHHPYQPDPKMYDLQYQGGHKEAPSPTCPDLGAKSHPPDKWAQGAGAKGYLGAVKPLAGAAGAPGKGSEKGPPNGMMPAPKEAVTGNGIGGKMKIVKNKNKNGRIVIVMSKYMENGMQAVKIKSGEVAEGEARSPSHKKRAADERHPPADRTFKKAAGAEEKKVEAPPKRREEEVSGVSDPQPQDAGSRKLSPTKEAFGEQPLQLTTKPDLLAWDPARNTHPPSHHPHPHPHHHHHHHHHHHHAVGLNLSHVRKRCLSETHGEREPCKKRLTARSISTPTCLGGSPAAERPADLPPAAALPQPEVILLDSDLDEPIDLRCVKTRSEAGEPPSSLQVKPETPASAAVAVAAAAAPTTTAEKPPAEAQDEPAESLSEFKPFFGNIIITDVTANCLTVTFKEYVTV
Put plainly: Binding affinity to CBX4 (unknown origin) by isothermal titration calorimetry assay.

Assay [3] addresses T1, Chromobox protein homolog 7. The assay is described as follows: Binding affinity to CBX7 (unknown origin) by isothermal titration calorimetry assay.
For assay [4], the target named is Chromobox protein homolog 1 (Homo sapiens, UniProt P83916). The assay is described as follows: Binding affinity to CBX1 (unknown origin) by isothermal titration calorimetry assay.
The target in assay [5] is T3, Chromobox protein homolog 8 (Homo sapiens, UniProt Q9HC52).
T3 sequence (Q9HC52 whole entry): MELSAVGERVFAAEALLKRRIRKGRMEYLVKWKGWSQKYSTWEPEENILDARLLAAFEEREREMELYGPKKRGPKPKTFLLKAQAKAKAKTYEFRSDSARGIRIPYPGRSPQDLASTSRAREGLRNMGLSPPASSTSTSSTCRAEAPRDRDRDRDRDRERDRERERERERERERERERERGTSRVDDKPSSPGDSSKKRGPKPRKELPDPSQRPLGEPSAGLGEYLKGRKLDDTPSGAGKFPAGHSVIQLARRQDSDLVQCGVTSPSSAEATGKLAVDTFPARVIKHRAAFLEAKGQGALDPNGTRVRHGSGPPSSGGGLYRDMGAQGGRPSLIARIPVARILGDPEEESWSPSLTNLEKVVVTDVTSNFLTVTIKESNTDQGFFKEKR
Put plainly: Binding affinity to CBX8 (unknown origin) by isothermal titration calorimetry assay.

Assay [6] addresses T4, Chromobox protein homolog 7 (Homo sapiens) (UniProt O95931).
T4 sequence (whole entry): T1 sequence (O95931 whole entry)
Described as §1.

Active and inactive are the calls of the source. The calls are words filed in the database; no cut-off is given here. Starred links: 1 amine or outer side, 2 acyl side, 3 side chain; linkers in the order of their positions; H or OH if unused. Non-standard residues stand in square brackets, D forms with d. Residues, ends and D or L forms follow the SMILES beside them. *: point of attachment. Benzenesulfonyl(4-OMe) = COc1ccc(S(=O)(=O)*)cc1; Benzoyl(4-CO2Me) = COC(=O)c1ccc(C(=O)*)cc1; Benzoyl(4-COOH) = O=C(O)c1ccc(C(=O)*)cc1; Lys(Me3) = C[N+](C)(C)CCCC[C@H](N)C(=O)O; Benzoyl(4-Br) = O=C(c1ccc(Br)cc1)*; Ethylenediamine = C(CN[*:2])N[*:1]; Gly(cPent) = N[C@H](C(=O)O)C1CCCC1; X3 = COC(=O)c1ccc(S(=O)(=O)*)cc1; X6 = O=C(O)c1ccc(S(=O)(=O)*)cc1; Tos = Cc1ccc(S(=O)(=O)*)cc1; X2 = O=C(c1c[nH]c2ccccc12)*; NHCH(CH2OH)2 = OCC(CO)N*; X10 = O=C(Cc1ccccc1Br)*; X7 = O=S(=O)(c1cccnc1)*; PhAc = O=C(Cc1ccccc1)*

Chain of Chromobox protein homolog 1 (P83916 whole entry): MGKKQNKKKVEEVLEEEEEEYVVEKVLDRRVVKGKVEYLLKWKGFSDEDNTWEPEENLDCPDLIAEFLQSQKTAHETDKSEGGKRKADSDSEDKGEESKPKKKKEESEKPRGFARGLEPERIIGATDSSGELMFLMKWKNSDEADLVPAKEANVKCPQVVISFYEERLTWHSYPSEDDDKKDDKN

On to `CC(=O)N[C@@H](Cc1ccccc1)C(=O)N[C@@H](C)C(=O)N[C@@H](CC(C)C)C(=O)N[C@@H](CCCC[N+](C)(C)C)C(=O)N[C@@H](CO)C(N)=O`, for which the 50% inhibitory concentration (IC50) in assay [1] was found to be 11 µM. In addition, the Kd in assay [2] amounted to 3.7 µM; in assay [3], 2 µM; in assay [4], 43 µM; in assay [5] it was 14.2 µM. In assay [1], `CC(=O)N[C@@H](Cc1ccccc1)C(=O)N[C@@H](C)C(=O)N[C@@H](CC(C)C)C(=O)N[C@@H](CCCC[N+](C)(C)C)C(=O)N[C@H](CO)C(N)=O` displayed an IC50 of 9 µM. Further, the values for the Kd in assay [3] and in assay [5] were 5.4 µM and 15 µM, respectively.

Consider `C[C@H](NC(=O)Cc1ccccc1)C(=O)N[C@H](C(=O)N[C@@H](CCCC[N+](C)(C)C)C(=O)NC(CO)CO)C1CCCC1`, for which the Kd in assay [3] is 4.1 µM; in assay [5], 15 µM.

In turn, `CC(=O)N[C@@H](Cc1ccccc1)C(=O)N[C@@H](C)C(=O)N[C@@H](Cc1ccc(O)cc1)C(=O)N[C@@H](CCCC[N+](C)(C)C)C(=O)N[C@@H](CO)C(N)=O` (Ac-FAY[Lys(Me3)]S-NH2) gave a dissociation constant (Kd) in assay [5] of 12.3 µM. In the case of `CC(C)C[C@H](NC(=O)[C@H](C)NC(=O)Cc1ccccc1)C(=O)N[C@@H](CCCC[N+](C)(C)C)C(=O)N[C@@H](CO)C(N)=O` (PhAc-AL[Lys(Me3)]S-NH2), in assay [1], the IC50 amounted to 23 µM. The same measure, in the same setting: in the case of `CC(C)C[C@H](NC(=O)[C@H](C)NC(=O)CNC(=O)Cc1ccccc1)C(=O)N[C@@H](CCCC[N+](C)(C)C)C(=O)N[C@@H](CO)C(N)=O` (PhAc-GAL[Lys(Me3)]S-NH2) it was 100 µM; in that of `Cc1ccc(S(=O)(=O)N[C@@H](Cc2ccccc2)C(=O)N[C@@H](C)C(=O)N[C@@H](CC(C)C)C(=O)N[C@@H](CCCC[N+](C)(C)C)C(=O)N[C@@H](CO)C(N)=O)cc1` (Tos-FAL[Lys(Me3)]S-NH2), above 250 µM; in that of `Cc1ccc(S(=O)(=O)NCC(=O)N[C@@H](C)C(=O)N[C@@H](CC(C)C)C(=O)N[C@@H](CCCC[N+](C)(C)C)C(=O)N[C@@H](CO)C(N)=O)cc1` (Tos-GAL[Lys(Me3)]S-NH2), 34 µM. On to `CC(C)C[C@H](NC(=O)[C@H](C)NC(=O)c1c[nH]c2ccccc12)C(=O)N[C@@H](CCCC[N+](C)(C)C)C(=O)N[C@@H](CO)C(N)=O` (X2-AL[Lys(Me3)]S-NH2), for which the concentration for half-maximal inhibition (IC50) in assay [1] amounted to 67 µM. Regarding `COC(=O)c1ccc(S(=O)(=O)N[C@@H](Cc2ccccc2)C(=O)N[C@@H](C)C(=O)N[C@@H](CC(C)C)C(=O)N[C@@H](CCCC[N+](C)(C)C)C(=O)N[C@@H](CO)C(N)=O)cc1` (X3-FAL[Lys(Me3)]S-NH2), the IC50 in assay [1] worked out at 57 µM. On the same count and under the same terms, in the case of `CC(C)C[C@H](NC(=O)[C@H](C)NC(=O)[C@H](Cc1ccccc1)NS(=O)(=O)c1ccc(C(=O)O)cc1)C(=O)N[C@@H](CCCC[N+](C)(C)C)C(=O)N[C@@H](CO)C(N)=O` (X6-FAL[Lys(Me3)]S-NH2) it was 6.7 µM; in that of `CC(C)C[C@H](NC(=O)[C@H](C)NC(=O)CNS(=O)(=O)c1ccc(C(=O)O)cc1)C(=O)N[C@@H](CCCC[N+](C)(C)C)C(=O)N[C@@H](CO)C(N)=O` (X6-GAL[Lys(Me3)]S-NH2), 53 µM; in that of `CC(C)C[C@H](NC(=O)[C@H](C)NS(=O)(=O)c1cccnc1)C(=O)N[C@@H](CCCC[N+](C)(C)C)C(=O)N[C@@H](CO)C(N)=O` (X7-AL[Lys(Me3)]S-NH2), above 250 µM. The same measure, in the same setting: in the case of `CC(C)C[C@H](NC(=O)[C@H](C)NC(=O)Cc1ccccc1Br)C(=O)N[C@@H](CCCC[N+](C)(C)C)C(=O)N[C@@H](CO)C(N)=O` (X10-AL[Lys(Me3)]S-NH2) it was 89 µM; in that of `COc1ccc(S(=O)(=O)N[C@@H](C)C(=O)N[C@@H](CC(C)C)C(=O)N[C@@H](CCCC[N+](C)(C)C)C(=O)N[C@@H](CO)C(N)=O)cc1` ({Benzenesulfonyl(4-OMe)}-AL[Lys(Me3)]S-NH2), above 250 µM. In turn, `CC(C)C[C@H](NC(=O)[C@H](C)NC(=O)[C@H](Cc1ccccc1)NC(=O)c1ccc(Br)cc1)C(=O)N[C@@H](CCCC[N+](C)(C)C)C(=O)N[C@@H](CO)C(N)=O` ({Benzoyl(4-Br)}-FAL[Lys(Me3)]S-NH2) returned an IC50 in assay [1] of 4.6 µM. Further, the Kd in assay [3] was 0.28 µM; in assay [5], 1.5 µM.

On to `C[C@H](NC(=O)[C@H](Cc1ccccc1)NC(=O)c1ccc(Br)cc1)C(=O)N[C@H](C(=O)N[C@@H](CCCC[N+](C)(C)C)C(=O)NCCN)C1CCCC1` ({Benzoyl(4-Br)}-FA[Gly(cPent)][Lys(Me3)]-Ethylenediamine), for which the Kd in assay [3] amounted to 0.22 µM; in assay [5], 0.48 µM. `COC(=O)c1ccc(C(=O)N[C@@H](Cc2ccccc2)C(=O)N[C@@H](C)C(=O)N[C@@H](CC(C)C)C(=O)N[C@@H](CCCC[N+](C)(C)C)C(=O)N[C@@H](CO)C(N)=O)cc1` ({Benzoyl(4-CO2Me)}-FAL[Lys(Me3)]S-NH2) displayed a concentration for half-maximal inhibition (IC50) in assay [1] of 6.3 µM. This lies in the single-digit micromolar range.

Take `COC(=O)c1ccc(C(=O)N[C@@H](Cc2ccccc2)C(=O)N[C@@H](C)C(=O)N[C@H](C(=O)N[C@@H](CCCC[N+](C)(C)C)C(=O)NC(CO)CO)C2CCCC2)cc1` ({Benzoyl(4-CO2Me)}-FA[Gly(cPent)][Lys(Me3)]-{NHCH(CH2OH)2}): the Kd in assay [2] is 0.29 µM; in assay [3], 0.2 µM; in assay [4], above 500 µM; in assay [5], 1.89 µM. For the compound `COC(=O)c1ccc(C(=O)N[C@@H](Cc2ccccc2)C(=O)N[C@@H](C)C(=O)N[C@H](C(=O)N[C@@H](CCCC[N+](C)(C)C)C(=O)N[C@@H](CO)C(N)=O)C2CCCC2)cc1` ({Benzoyl(4-CO2Me)}-FA[Gly(cPent)][Lys(Me3)]S-NH2), the Kd in assay [3] stood at 0.2 µM; in assay [5] it was 1.78 µM.

Compound `CC(C)C[C@H](NC(=O)[C@H](C)NC(=O)[C@H](Cc1ccccc1)NC(=O)c1ccc(C(=O)O)cc1)C(=O)N[C@@H](CCCC[N+](C)(C)C)C(=O)N[C@@H](CO)C(N)=O` ({Benzoyl(4-COOH)}-FAL[Lys(Me3)]S-NH2) had an IC50 in assay [1] of 6.2 µM. Ac-FALKS-NH2: the inhibition entry in assay [6] is “inactive”.

These data come from ChEMBL document CHEMBL3233003, “Chromodomain antagonists that target the polycomb-group methyllysine reader protein chromobox homolog 7 (CBX7)” (J Med Chem, 2014).
